Results published in US6703386B2, “Diphenylazetidinone derivatives, process for their preparation, medicaments comprising these compounds and their use” (Aventis Pharma Deutschland GmbH, priority 2000, dated 2004).

How the values were obtained:
[1] = tested on: cholesterol absorption (uptake of ^14C-cholesterol by the liver); assay: Cholesterol absorption test: uptake of 14C-cholesterol by the liver after peroral test meal; assay type: in vivo, NMRI mice; details: dose at which uptake of 14C-cholesterol by the liver is halved vs control group, mouse
From the text: Effect on Cholesterol Absorption+^3H-taurocholic Acid Excretion Using Fecal Excrement of Mice, Rats or Hamsters
NMRI mice, Wistar rats, or Golden Syrian hamsters (in groups of n=4-6) are kept in metabolic cages, where they are fed with a standard diet (Altromin, Lage (Lippe)). The afternoon prior to the administration of the radioactive tracers (^14C-cholesterol), the feed is removed and the animals are adapted to grates.
Additionally, the animals are labeled s.c. with ^3H-TCA (taurocholic acid) (for example 1 μCi/mouse up to 5 μCi/rat) 24 hours prior to the peroral administration of the test meal (^14C-cholesterol in Intralipid® 20, Pharmacia-Upjohn).
Cholesterol absorption test: 0.25 ml/mouse Intralipid® 20 (Pharmacia-Upjohn) ((spiked with 0.25 μCi of ^14C-cholesterol in 0.1 mg of cholesterol) is administered perorally by gavage.
Test substances are prepared separately in 0.5% methylcellulose (Sigma)/5% Solutol (BASF, Ludwigshafen) or a suitable vehicle.
The administration volume of the test substance is 0.5 ml/mouse. The test substance is administered immediately prior to the test meal (Intralipid labeled with ^14C-cholesterol) (cholesterol absorption test).
The feces are collected over a period of 24 h: fecal elimination of ^14C-cholesterol and ^3H-taurocholic acid (TCA) is determined after 24 hours.
The livers are removed and homogenized, and aliquots are incinerated in an oximate (Model 307, Packard) to determine the amount of ^14C-cholesterol which had been taken up/absorbed.
The amount of ^14C-cholesterol taken up by the liver is based on the administered dose. The ED50 values are interpolated from a dose-effect curve as the dose at which the uptake of ^14C-cholesterol by the liver is halved (50%), based on a control group.

Caco-2 cell monolayers = assay: Bioabsorption in the Caco cell model (Hilgers et al.); assay type: in vitro ADME; details: estimated from Caco cell model
From the text: The bioabsorption of the compounds of the formula I can be examined using the Caco cell model (A. R. Hilgers et al., Caco-2 cell monolayers as a model for drug transport across the intestinal mucosa, Pharm. Res. 1990, 7, 902).
Below is a bioabsorption measurement for a reference compound

Estimated human bioabsorption (Caco-2 cell monolayers) [%]	Compound	ED50 (liver) [1] [mg/mouse]
–	O=C(COCCOCC(=O)Nc1ccccc1C(Nc1ccccn1)C(c1ccccn1)C(O)c1ccccc1)NCc1ccc(C2C(CCC(O)c3ccc(F)cc3)C(=O)N2c2ccc(F)cc2)cc1.O=C(O)C(F)(F)F (stereo not shown) [XIX, {1-[2-(2-{2-[(4-{1-(4-Fluorophenyl)-3-[3-(4-fluorophenyl)-3-hydroxypropyl]-4-oxoazetidin-2-yl}benzylcarbamoyl)methoxy]ethoxy}acetylamino)phenyl]-3-hydroxy-3-phenyl-2-pyridin-2-ylpropyl}pyridin-2-ylammonium trifluoroacetate]	0.1
–	O=C(COCCOCCOCC(=O)Nc1ccccc1C(Nc1ccccn1)C(c1ccccn1)C(O)c1ccccc1)NCc1cccc(C2C(CCC(O)c3ccc(F)cc3)C(=O)N2c2ccc(F)cc2)c1.O=C(O)C(F)(F)F (stereo not shown) [XVIII, (1-{2-[2-(2-{2-[(3-{1-(4-Fluorophenyl)-3-[3-(4-fluorophenyl)-3-hydroxypropyl]-4-oxoazetidin-2-yl}benzylcarbamoyl)methoxy]ethoxy}ethoxy)acetylamino]phenyl}-3-hydroxy-3-phenyl-2-pyridin-2-ylpropyl)pyridin-2-ylammonium trifluoroacetate]	0.3
–	O=C(CCCCCCCCCCC(=O)Nc1ccccc1C(Nc1ccccn1)C(c1ccccn1)C(O)c1ccccc1)NCc1cccc(C2C(CCC(O)c3ccc(F)cc3)C(=O)N2c2ccc(F)cc2)c1.O=C(O)C(F)(F)F (stereo not shown) [XVI, (1-{2-[11-(3-{1-(4-Fluorophenyl)-3-[3-(4-fluorophenyl)-3-hydroxypropyl]-4-oxoazetidin-2-yl}benzylcarbamoyl)undecanoylamino]phenyl}-3-hydroxy-3-phenyl-2-pyridin-2-ylpropyl)pyridin-2-yl ammonium trifluoroacetate]	0.03
100	O=C1[C@H](CC[C@H](O)c2ccc(F)cc2)[C@@H](c2ccc(O)cc2)N1c1ccc(F)cc1 [Ezetimibe]	–
